Experimental data published in patent US11203577B2, “Sulfonyl-structure-containing triazinone derivatives, their preparation methods and their uses in insect killing and/or bacterium killing” (Nankai University, priority 2017, dated 2021).
Like-named read-outs stand apart in the source and are kept apart here.

What was measured:
[1] = system: Cotton bollworms; test: Test of insecticidal activity against cotton bollworms (pesticide mixed into feedstuff); details: read-out: Mortalities (%) Cotton bollworms
Procedure: Method of testing against cotton bollworms: the pesticide is mixed into the feedstuff, i.e., 3 mL prepared solution is added into about 27 g freshly prepared feedstuff; thus, required concentration is obtained by diluting by 10 times.

[2] = system: Tomato early blight; test: In vitro fungicidal activity, PDA colony diameter; format: cell-based, Alternaria solani; details: 50 mg/kg, inhibition of colony diameter; read-out: Fungicidal activity (%) Tomato early blight
[3] = system: Maize borers; test: Test of insecticidal activity against maize borers (leaf immersion); details: read-out: Mortalities (%) Maize borers
[4] = system: Sclerotinia rot of colza; test: In vitro fungicidal activity, PDA colony diameter; format: cell-based; details: 96 h, 50 mg/kg, inhibition of colony diameter, read-out: Fungicidal activity (%) Sclerotinia rot of colza
[5] = system: bean aphides (Aphis laburni Kaltenbach); test: Test of insecticidal activity against aphides (leaf immersion, checked after 96 h); details: Aphis, 96 h, read-out: Mortalities (%) against aphides
Procedure: The insecticidal activity against aphides is tested through the following steps: the tested aphides are bean aphides (Aphis laburni Kaltenbach), a normal colony fed with broad bean leaves in a laboratory. The pesticide is weighed, 1 mL DMF is added to dissolve the pesticide, then two drops of emulsifier, Tween-20 are added, and distilled water is added in an appropriate amount; the mixture is stirred to a homogeneous state to prepare pesticide solution at required concentration (see the following table for the specific concentration). […] In a control group, only emulsifier and solvent are added into distilled water, and the mixture is stirred to a homogeneous state.

[6] = system: Rice sheath blight; test: In vitro fungicidal activity, PDA colony diameter; format: cell-based; details: 50 mg/kg, inhibition of colony diameter; read-out: Fungicidal activity (%) Rice sheath blight
[7] = system: Rice bakanae disease; test: In vitro fungicidal activity, PDA colony diameter; format: cell-based; details: read-out: Fungicidal activity (%) Rice bakanae disease
[8] = system: Cucumber fusarium wilt; test: In vitro fungicidal activity, PDA colony diameter; format: cell-based; details: 96 h, 50 mg/kg, inhibition of colony diameter, read-out: Fungicidal activity (%) Cucumber fusarium wilt
[9] = system: Corn southern leaf blight; test: In vitro fungicidal activity, PDA colony diameter; format: cell-based; details: 50 mg/kg, inhibition of colony diameter; read-out: Fungicidal activity (%) Corn southern leaf blight
[10] = system: Apple ring rot; test: In vitro fungicidal activity, PDA colony diameter; format: cell-based; details: inhibition of colony diameter
Method in brief: (§1)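 Percent growth inhibition derived from colony diameter versus compound-free PDA control after 4 days' culture. Plates contained compound at 50 mg/kg; inoculum was a plug taken from the periphery of a 7-day PDA culture.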

[11] = system: Capsicum phytophthora blight; test: In vitro fungicidal activity, PDA colony diameter; format: cell-based; details: 96 h
Method in brief: as §1

[12] = system: Cercospora brown spot of peanut; test: In vitro fungicidal activity, PDA colony diameter; format: cell-based; details: 96 h, 50 mg/kg, inhibition of colony diameter, read-out: Fungicidal activity (%) Cercospora brown spot of peanut
[13] = system: mosquito larvae (Culer pipiens pallens); test: Test of insecticidal activity against mosquito larvae (checked after 24 h); details: 24 h, read-out: Mortalities (%) against mosquito larvae
Procedure: Method of testing against mosquito larvae: the tested mosquito larvae are Culer pipiens pallens, a normal colony fed indoor. About 5 mg compound to be tested is weighed and loaded into a penicillin vial, 5 mL acetone (or an appropriate solvent) is added into the vial, and the vial is oscillated to dissolve the compound; thus, 1,000 ppm mother liquid is obtained. 1 mL mother liquid is weighed and added into a 100 mL beaker filled with 89 mL water, 10 mosquito larvae in the early stage of the 4th instar together with 10 mL feeding solution are poured into the beaker; thus, the concentration of the pesticide solution is 10 ppm (the pesticide solutions with other concentrations are attained by diluting the mother liquid by corresponding times). […] Water solution that contains 0.5 mL test solvent is used as a blank sample.

[14] = system: a variety of pathogenic fungi; test: In vitro fungicidal activity, summary over the tested fungi; format: cell-based; details: 50 mg/kg
Procedure: Here, the test is described in an example of Alternaria solani; it can be replaced by other fungi.
In vitro testing method: Alternaria solani is inoculated to a PDA culture medium and cultured for 7 days, a fungus dish with a diameter of […] is prepared on the periphery of the colony with a punch and inoculated to a PDA culture medium that contains pesticide at a concentration of 50 mg/kg and a PDA culture medium that doesn't contain the pesticide, and are cultured for 4 days respectively; then, the colony diameters are measured, and the inhibition percentages of the pesticides are calculated by comparing with the control sample.

[15] = system: Potato late blight; test: microbe, parasite or virus in culture; format: cell-based; details: Phytophthora infestans, 96 h, read-out: Fungicidal activity (%) Potato late blight
[16] = system: Watermelon anthracnose; test: In vitro fungicidal activity, PDA colony diameter; format: cell-based; details: 50 mg/kg, inhibition of colony diameter; read-out: Fungicidal activity (%) Watermelon anthracnose
[17] = system: Wheat head blight; test: whole plant or invertebrate; format: cell-based; details: Triticum aestivum, read-out: Fungicidal activity (%) Wheat head blight
[18] = system: Wheat sheath blight; test: In vitro fungicidal activity, PDA colony diameter; format: cell-based; details: 50 mg/kg, inhibition of colony diameter; read-out: Fungicidal activity (%) Wheat sheath blight
[19] = system: Armyworms; test: Test of insecticidal activity against armyworms (leaf immersion); details: 600 mg/kg, 3-4 days
[20] = 50 mg/kg, inhibition of colony diameter

SMILES	mortality at 600 mg/kg [1]	inhibition at 50 mg/kg [2]	mortality at 600 mg/kg [3]	inhibition of growth at 50 mg/kg [4]	mortality at 10 mg/kg [5]	mortality at 100 mg/kg [5]	mortality at 600 mg/kg [5]	inhibition at 50 mg/kg [6]	inhibition of growth at 50 mg/kg [8]	inhibition at 50 mg/kg [9]	inhibition at 50 mg/kg [10]	inhibition of growth at 50 mg/kg [11]	inhibition of growth at 50 mg/kg [12]	mortality at 10 mg/kg [13]	fungicidal activity against a variety of pathogenic fungi [14]	inhibition of growth at 50 mg/kg [15]	inhibition at 50 mg/kg [16]	inhibition at 50 mg/kg [17]	inhibition at 50 mg/kg [18]	Mortalities (%) Armyworms [19]	further results
CCCCS(=O)(=O)NN1CC(C)=NNC1=O [Ia-4, N-(6-methyl-3-oxo-2,3-dihydro-1,2,4-triazin-4(5H)-yl)-n-butylsulfonamide]	0%	14.3%	5%	48.3%	20%	70%	85%	34.9%	0%	33.3%	31%	46.9%	15.8%	20%	outstanding fungicidal activity	40.7%	25%	6.7%	70.5%	5%	inhibition at 50 mg/kg [7, 20]: 38.9%
CC1=NNC(=O)N(NS(=O)(=O)c2ccc(C)cc2)C1 [Ia-12, 4-methyl-N-(6-methyl-3-oxo-2,3-dihydro-1,2,4-triazin-4(5H)-yl)-benzenesulfonamide]	30%	33.3%	10%	70%	100%	100%	100%	27%	25%	33.3%	41.4%	40.8%	42.1%	100%	outstanding fungicidal activity	29.6%	33.3%	13.3%	72.7%	15%	mortality at 2.5 mg/kg [5]: 30%; mortality at 5 mg/kg [5]: 100%; inhibition at 50 mg/kg [7, 20]: 27.8%; mortality at 2 mg/kg [13]: 10%; mortality at 5 mg/kg [13]: 100%
CC1=NNC(=O)N(N(S(=O)(=O)c2ccccc2)S(=O)(=O)c2ccccc2)C1 [Ib-5, N-(6-methyl-3-oxo-2,3-dihydro-1,2,4-triazin-4(5H)-yl)-N-(benzenesulfonyl)-benzenesulfonamide]	20%	38.1%	25%	40%	50%	90%	100%	27%	15%	25%	44.8%	42.9%	36.8%	60%	outstanding fungicidal activity	22.2%	20.8%	10%	68.2%	40%	mortality at 5 mg/kg [5]: 10%; inhibition at 50 mg/kg [7]: 22.2%
